These results are taken from patent US20230329906A1, “INTRAOCULAR DELIVERY OF BIOACTIVE MOLECULES USING IONTOPHORESIS” (KEMIN INDUSTRIES, INC., priority 2014, published 2023).

SMILES strings stand for the structures.

Series [1] is described as follows: Lutein distribution in human cadaveric eyes after corneo-scleral iontophoresis, two-photon microscopy. The format is in vitro ADME. As to conditions: 2.5 mA for 5 min cornea/sclera, 80 min rest. The method, then:
(§1) A typical iontophoretic setting is made of two components: ocular applicator and a return electrode both connected to a generator. In this experiment, the ocular applicator comprised 2 electrodes to address independently corneal and scleral tissues. The ocular applicator (OPIA Technologies SAS, Paris, France) is made of polyurethane resin and comprises 2 reservoirs: central circular reservoir (diameter 8 mm, height 4.5 mm, volume 1 ml) and a stainless steel electrode, applied on the cornea surrounded by an annular reservoir (inner diameter 12.5 mm, outer diameter 18 mm height 4.5 mm, volume 1 ml) and a stainless steel electrode, applied on the sclera (pars plana region around the limbus). Each stainless steel electrode connected with a lead to a different constant current generator (anode —positive electrode). The return electrodes were assigned to each generator and respectively attached to the optic nerve (for the corneal electrode) and the equator region of the sclera (for scleral electrode), closing each electrical circuit independently.
Cadaveric eyes. Six human cadaveric eye globes, from different healthy donors, were obtained from the Veneto Eye Bank Foundation (Venezia Zelarino, Italy). […]
(§2) Preparation of the eyes. […] After pre-conditioning, the central corneal thickness (CCT) was measured, using an ultrasound corneal pachymeter (Pachmate, DGH, Exton, USA). […]

The nature of series [2]: Resonance Raman spectroscopy of ocular tissues of human cadaveric eyes after iontophoresis. The format is in vitro ADME. The method, then:
as §1
Cadaveric eyes. Six human cadaveric eye globes, from different healthy donors, were obtained from the Veneto Eye Bank Foundation (Venezia Zelarino, Italy). The human eyes were used in compliance with the guidelines of the Declaration of Helsinki for research involving the use of human tissue and were explanted between 3 and 16 hours after death and immediately preserved at 4° C. in corneal storage medium enriched with 6% dextran. The mean donor age was 63.6±5.9 years. The mean endothelial cell density was 2125±389 cells/mm^2. Each eye globe, submerged in dextran enriched solution, was shipped to the laboratory within 5 days. Four eye globes underwent corneo-scleral iontophoresis to deliver 0.1% lutein ophthalmic solution into the retinal tissue. Two eye globes were used as control: iontophoresis was performed without presence of the formulation.
as §2

As to `CC1=C[C@H](O)CC(C)(C)[C@H]1/C=C/C(C)=C/C=C/C(C)=C/C=C/C=C(C)/C=C/C=C(C)/C=C/C1=C(C)C[C@@H](O)CC1(C)C` [lutein], in series [1], the “Lutein distribution within the retina, outer versus inner part” value was “more lutein in the outer part close to the photoreceptors than in the ganglion cells” and the “Lutein in the retina” value is reported as “abundant in the retina”. Further, the “Raman peak at 1530 cm−1, treated eye versus control eye” value in series [2] (inner sclera) amounted to 7 times. Further, the “Raman peak at 1530 cm−1, treated eye versus controls” value in series [2] (macula) was 1.3 times. Also, the “Raman peak at 1530 cm−1, treated eye versus control eye” value in series [2] (retinal mid-periphery) is listed as 1.7 times.
